Results as given in US20100197797A1 (priority 2009, published 2010).

Experiments:
[1] = system: fibromyalgia patients; experiment: Placebo-controlled trials in fibromyalgia patients (safety); assay type: in vivo, human; conditions: for patients with >15 mmHg increase in SBP at the end of the study / patients with DBP increases >10 mmHg at end of study: hypertensive at baseline; for patients with increases in ALT: mild elevations (1-3 times ULN); for patients who became hypertensive at the end of the study (SBP≧140 mmHg or DBP≧90 mmHg): non-hypertensive at baseline; for incidence of suicidal ideation: patients with a history of depression at treatment initiation; for patients who became hypertensive at the end of the study: pre-hypertension at baseline (SBP 120-139 mmHg); for mean weight loss: up to 3 months
Text: The stated frequencies of adverse reactions represent the proportion of individuals who experienced, at least once, a treatment-emergent adverse reaction of the type listed. A reaction was considered treatment emergent if it occurred for the first time or worsened while receiving therapy following baseline evaluation.

[2] = Solubility; assay type: physicochemical
[3] = system: fibromyalgia; experiment: Study 1, 6-month fibromyalgia efficacy study; assay type: in vivo, human
Text: Enrolled patients met the American College of Rheumatology (ACR) criteria for fibromyalgia (a history of widespread pain for 3 months and pain present at 11 or more of the 18 specific tender point sites). […] Study 1 was six months in duration and Study 2 was three months in duration.
Patients were enrolled with a minimum mean baseline pain score of ≧50 mm on a 100 mm visual analog scale (VAS) ranging from 0 (“no pain”) to 100 (“worst possible pain”). The mean baseline pain score in this trial was 69.

[4] = system: humans; experiment: Acute overdose in clinical trials; assay type: in vivo, human; conditions: up to 1000 mg, alone or in combination with other drugs
Text: There is limited clinical experience with milnacipran hydrochloride overdose in humans.

[5] = 3-month placebo-controlled trials
[6] = all milnacipran hydrochloride (n = 1557)

## CCN(CC)C(=O)C1(c2ccccc2)CC1CN.Cl (racemic) [milnacipran hydrochloride, (±)-[1R(S),2S(R)]-2-(aminomethyl)-N,N-diethyl-1-phenylcyclopropanecarboxamide hydrochloride]
[1]; 100 mg/day
  patients who discontinued prematurely due to adverse reactions: 23%
  patients with increases in AST: 3%
  patients with increases in pulse≧20 bpm: 8%
  sustained increases in DBP (≧10 mmHg on 3 consecutive post-baseline visits): 13%
  sustained increases in SBP (≧15 mmHg on three consecutive post-baseline visits): 9%
  patients with >15 mmHg increase in SBP at the end of the study: 7%
  patients with DBP increases >10 mmHg at end of study: 8%
  patients with increases in ALT: 6%
  patients who became hypertensive at the end of the study (SBP≧140 mmHg or DBP≧90 mmHg): 19.5%
  incidence of suicidal ideation: 0%
  patients who became hypertensive at the end of the study: 14%
  mean weight loss: approximately 0.8 kg
[1]; 100 mg/day (n = 623)
  Adverse reaction incidence: Abdominal pain: 3%
  Adverse reaction incidence: Anxiety: 5%
  Adverse reaction incidence: Blood pressure increased: 3%
  Adverse reaction incidence: Chest discomfort: 2%
  Adverse reaction incidence: Chest pain: 3%
  Adverse reaction incidence: Chills: 1%
  Adverse reaction incidence: Constipation: 16%
  Adverse reaction incidence: Decreased appetite: 1%
  Adverse reaction incidence: Dizziness: 11%
  Adverse reaction incidence: Dry mouth: 5%
  Adverse reaction incidence: Dyspnea: 2%
  Adverse reaction incidence: Flushing: 2%
  Adverse reaction incidence: Headache: 19%
  Adverse reaction incidence: Heart rate increased: 5%
  Adverse reaction incidence: Hot flush: 11%
  Adverse reaction incidence: Hyperhidrosis: 8%
  Adverse reaction incidence: Hypertension: 7%
  Adverse reaction incidence: Hypoesthesia: 1%
  Adverse reaction incidence: Insomnia: 12%
  Adverse reaction incidence: Migraine: 6%
  Adverse reaction incidence: Nausea: 35%
  Adverse reaction incidence: Palpitations: 8%
  Adverse reaction incidence: Paresthesia: 2%
  Adverse reaction incidence: Pruritus: 3%
  Adverse reaction incidence: Rash: 3%
  Adverse reaction incidence: Tachycardia: 3%
  Adverse reaction incidence: Tension headache: 2%
  Adverse reaction incidence: Tremor: 2%
  Adverse reaction incidence: Upper respiratory tract infection: 7%
  Adverse reaction incidence: Vision blurred: 1%
  Adverse reaction incidence: Vomiting: 6%
[1]; 100 mg/day, one patient
  patients with increase in ALT greater than 5 times (not exceeding 10 times) the upper limit of normal: 0.2%
[1]; 200 mg/day
  patients who discontinued prematurely due to adverse reactions: 26%
  patients with increases in AST: 5%
  patients with increases in pulse≧20 bpm: 8%
  sustained increases in DBP (≧10 mmHg on 3 consecutive post-baseline visits): 10%
  sustained increases in SBP (≧15 mmHg on three consecutive post-baseline visits): 6%
  patients with >15 mmHg increase in SBP at the end of the study: 2%
  patients with DBP increases >10 mmHg at end of study: 6%
  patients with increases in ALT: 7%
  patients who became hypertensive at the end of the study (SBP≧140 mmHg or DBP≧90 mmHg): 16.6%
  incidence of suicidal ideation: 1.3%
  patients who became hypertensive at the end of the study: 14%
  mean weight loss: approximately 0.8 kg
[1]; 200 mg/day (n = 934)
  Adverse reaction incidence: Abdominal pain: 3%
  Adverse reaction incidence: Anxiety: 3%
  Adverse reaction incidence: Blood pressure increased: 3%
  Adverse reaction incidence: Chest discomfort: 1%
  Adverse reaction incidence: Chest pain: 2%
  Adverse reaction incidence: Chills: 2%
  Adverse reaction incidence: Constipation: 15%
  Adverse reaction incidence: Decreased appetite: 2%
  Adverse reaction incidence: Dizziness: 10%
  Adverse reaction incidence: Dry mouth: 5%
  Adverse reaction incidence: Dyspnea: 2%
  Adverse reaction incidence: Flushing: 3%
  Adverse reaction incidence: Headache: 17%
  Adverse reaction incidence: Heart rate increased: 6%
  Adverse reaction incidence: Hot flush: 12%
  Adverse reaction incidence: Hyperhidrosis: 9%
  Adverse reaction incidence: Hypertension: 4%
  Adverse reaction incidence: Hypoesthesia: 2%
  Adverse reaction incidence: Insomnia: 12%
  Adverse reaction incidence: Migraine: 4%
  Adverse reaction incidence: Nausea: 39%
  Adverse reaction incidence: Palpitations: 7%
  Adverse reaction incidence: Paresthesia: 3%
  Adverse reaction incidence: Pruritus: 2%
  Adverse reaction incidence: Rash: 4%
  Adverse reaction incidence: Tachycardia: 2%
  Adverse reaction incidence: Tension headache: 1%
  Adverse reaction incidence: Tremor: 2%
  Adverse reaction incidence: Upper respiratory tract infection: 6%
  Adverse reaction incidence: Vision blurred: 2%
  Adverse reaction incidence: Vomiting: 7%
[1]; [5]
  mean increase in diastolic blood pressure (DBP): up to 3.1 mm Hg
  mean increase in systolic blood pressure (SBP): up to 3.1 mm Hg
[1]; 100 vs 200 mg/day
  dose dependence of effect on heart rate: did not appear to increase with increasing dose
[1]; [6]
  Adverse reaction incidence: Abdominal pain: 3%
  Adverse reaction incidence: Anxiety: 4%
  Adverse reaction incidence: Blood pressure increased: 3%
  Adverse reaction incidence: Chest discomfort: 1%
  Adverse reaction incidence: Chest pain: 2%
  Adverse reaction incidence: Chills: 2%
  Adverse reaction incidence: Constipation: 16%
  Adverse reaction incidence: Decreased appetite: 2%
  Adverse reaction incidence: Dizziness: 10%
  Adverse reaction incidence: Dry mouth: 5%
  Adverse reaction incidence: Dyspnea: 2%
  Adverse reaction incidence: Flushing: 3%
  Adverse reaction incidence: Headache: 18%
  Adverse reaction incidence: Heart rate increased: 6%
  Adverse reaction incidence: Hot flush: 12%
  Adverse reaction incidence: Hyperhidrosis: 9%
  Adverse reaction incidence: Hypertension: 5%
  Adverse reaction incidence: Hypoesthesia: 1%
  Adverse reaction incidence: Insomnia: 12%
  Adverse reaction incidence: Migraine: 5%
  Adverse reaction incidence: Nausea: 37%
  Adverse reaction incidence: Palpitations: 7%
  Adverse reaction incidence: Paresthesia: 2%
  Adverse reaction incidence: Pruritus: 2%
  Adverse reaction incidence: Rash: 3%
  Adverse reaction incidence: Tachycardia: 2%
  Adverse reaction incidence: Tension headache: 1%
  Adverse reaction incidence: Tremor: 2%
  Adverse reaction incidence: Upper respiratory tract infection: 6%
  Adverse reaction incidence: Vision blurred: 2%
  Adverse reaction incidence: Vomiting: 7%
[1]; clinical trials
  elevated transaminases vs placebo: more patients treated with milnacipran hydrochloride developed elevated transaminases
  risk of mydriasis: increased risk of mydriasis
[1]; controlled fibromyalgia trials
  incidence of dysuria: 1%
[1]; each of dysuria, ejaculation disorder, erectile dysfunction, ejaculation failure, libido decreased, prostatitis, scrotal pain, testicular pain, testicular swelling, urinary hesitation, urinary retention, urethral pain, urine flow decreased, rate greater than placebo
  incidence of genitourinary adverse reactions in male patients: at least 2%
[1]; fibromyalgia clinical trials
  increases of bilirubin: not clinically significant
[1]; human, in vivo
  cases of ALT>3×ULN associated with bilirubin≧2×ULN: No case
  most common adverse reactions (incidence≧5% and twice placebo): constipation, hot flush, hyperhidrosis, vomiting, palpitations, heart rate increased, dry mouth, and hypertension
  most frequently occurring adverse reaction: nausea
[1]; short-term or longer-term (up to 1 year) fibromyalgia trials
  suicides: No suicides occurred
[1]; trials excluded current major depressive episode
  activation of mania or hypomania: No activation of mania or hypomania was reported
[2]; chloroform
  solubility: freely soluble
[2]; diethyl ether
  solubility: sparingly soluble
[2]; ethanol
  solubility: freely soluble
[2]; methanol
  solubility: freely soluble
[2]; methylene chloride
  solubility: freely soluble
[2]; water
  solubility: freely soluble
[3]; 100 mg and 200 mg daily, 3-month time point
  patients with at least 30% reduction in pain from baseline (VAS) and globally improved (PGIC) vs placebo: More patients
[3]; Studies 1 and 2
  proportion meeting composite response criteria: pain (VAS), physical function (SF-36 PCS), patient global assessment (PGIC), vs placebo: larger proportion
  proportion with simultaneous pain reduction of at least 30% (VAS) and PGIC much or very much improved, vs placebo: larger proportion
[3]; both studies, some patients globally much or very much improved, stable dose
  onset of decrease in pain: as early as week 1
[3]; in vivo
  benefit of 200 mg/day vs 100 mg/day: did not confer greater benefit
[4]
  outcome of acute ingestions: none being fatal
